Data published in PMC5518309 (ChemMedChem, 2014).
Numbered stars: 1 amine (or outer) side, 2 acyl side, 3 side chain; on linkers, the order of the positions; unused ones are H or OH. Side chains are listed from the residue outwards. Peptide text beside a SMILES is read from it. * marks the point of attachment. X1 = CN(C)c1ccc2c(c1)Oc1cc(N(C)C)ccc1C21OC(=O)c2ccc(C(=O)*)cc21; Arachidoyl = CCCCCCCCCCCCCCCCCCCC(=O)*; γGlu = O=C(O)[C@H](CCC(=O)[*:2])N[*:1]; Palmitoyl = CCCCCCCCCCCCCCCC(=O)*; Propionyl = CCC(=O)*

How the values were obtained:
[1] = Stability test in human blood plasma; format: in vitro ADME; details: for half-life at 10 μM: human
[2] = Metabolic stability in porcine liver homogenates; format: in vitro ADME; details: pig, porcine liver homogenate (supernatant)
hY2R = target: T1, hY2R (Homo sapiens, UniProt P49146); experiment: Inositol phosphate accumulation assay, hY2R; format: cell-based
T1 sequence (P49146 1-381): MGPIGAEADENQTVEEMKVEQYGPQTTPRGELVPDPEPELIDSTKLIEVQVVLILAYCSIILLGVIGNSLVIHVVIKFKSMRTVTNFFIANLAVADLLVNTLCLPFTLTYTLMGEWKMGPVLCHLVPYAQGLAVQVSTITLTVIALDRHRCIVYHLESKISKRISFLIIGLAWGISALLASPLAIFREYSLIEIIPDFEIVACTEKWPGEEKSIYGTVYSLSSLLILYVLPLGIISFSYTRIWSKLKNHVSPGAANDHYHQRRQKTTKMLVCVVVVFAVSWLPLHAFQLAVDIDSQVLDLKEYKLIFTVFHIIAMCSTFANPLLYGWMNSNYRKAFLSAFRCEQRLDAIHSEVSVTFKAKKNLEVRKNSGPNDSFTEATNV

hY5R = target: T2, hY5R (Homo sapiens, UniProt Q15761); experiment: Inositol phosphate accumulation assay, hY5R; format: cell-based
T2 sequence (Q15761 1-445): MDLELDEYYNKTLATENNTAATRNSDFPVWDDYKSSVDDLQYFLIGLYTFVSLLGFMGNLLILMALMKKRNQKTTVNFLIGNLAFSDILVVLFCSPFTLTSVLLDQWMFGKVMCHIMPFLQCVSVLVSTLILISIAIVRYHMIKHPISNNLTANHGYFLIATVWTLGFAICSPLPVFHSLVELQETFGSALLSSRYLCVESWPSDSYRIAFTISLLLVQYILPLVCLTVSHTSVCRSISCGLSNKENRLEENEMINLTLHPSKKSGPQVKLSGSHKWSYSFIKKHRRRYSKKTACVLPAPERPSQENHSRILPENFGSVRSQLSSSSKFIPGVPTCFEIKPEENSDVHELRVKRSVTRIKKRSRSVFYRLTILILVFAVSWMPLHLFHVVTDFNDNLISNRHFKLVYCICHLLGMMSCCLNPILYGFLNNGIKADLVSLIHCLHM

hY1R = target: T3, hY1R (Homo sapiens, UniProt P25929); experiment: Inositol phosphate accumulation assay, hY1R; format: cell-based
T3 sequence (P25929 1-384): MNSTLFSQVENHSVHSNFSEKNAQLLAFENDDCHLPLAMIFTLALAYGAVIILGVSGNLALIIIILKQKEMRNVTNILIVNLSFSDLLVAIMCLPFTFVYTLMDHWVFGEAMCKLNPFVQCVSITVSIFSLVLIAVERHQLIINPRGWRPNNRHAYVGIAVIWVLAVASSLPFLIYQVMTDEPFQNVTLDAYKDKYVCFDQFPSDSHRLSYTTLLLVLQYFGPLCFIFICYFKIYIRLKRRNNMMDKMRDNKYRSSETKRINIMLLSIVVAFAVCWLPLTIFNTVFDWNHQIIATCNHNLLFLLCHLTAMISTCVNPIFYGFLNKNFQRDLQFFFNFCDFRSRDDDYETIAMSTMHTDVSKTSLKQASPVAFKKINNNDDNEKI

hY4R = hY4R (Homo sapiens, UniProt P50391); experiment: Inositol phosphate accumulation assay, hY4R; format: cell-based
hY4R, sequence (P50391 whole entry): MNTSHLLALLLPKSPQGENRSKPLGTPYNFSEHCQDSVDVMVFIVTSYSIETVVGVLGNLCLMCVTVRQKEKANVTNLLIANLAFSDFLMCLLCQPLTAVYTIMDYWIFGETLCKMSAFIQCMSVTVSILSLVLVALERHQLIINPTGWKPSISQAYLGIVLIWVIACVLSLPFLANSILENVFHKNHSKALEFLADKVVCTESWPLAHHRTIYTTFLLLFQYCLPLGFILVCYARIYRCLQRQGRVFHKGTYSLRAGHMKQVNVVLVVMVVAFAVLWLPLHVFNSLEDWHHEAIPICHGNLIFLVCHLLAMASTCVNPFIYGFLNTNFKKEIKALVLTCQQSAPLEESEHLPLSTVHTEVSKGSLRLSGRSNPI

Question: For `CC[C@H](C)[C@H](NC(=O)[C@H](Cc1ccc(O)cc1)NC(=O)[C@H](CCCNC(=N)N)NC(=O)[C@H](CCCNC(=N)N)NC(=O)[C@H](CC(C)C)NC(=O)[C@H](CC(=O)O)NC(=O)[C@H](C)NC(=O)[C@H](C)NC(=O)[C@H](Cc1ccc(O)cc1)NC(=O)[C@H](CCC(N)=O)NC(=O)[C@H](C)NC(=O)[C@H](CCSC)NC(=O)[C@H](CCC(N)=O)NC(=O)[C@H](CCC(=O)O)NC(=O)[C@@H]1CCCN1C(=O)[C@@H](NC(=O)[C@H](C)NC(=O)[C@H](CC(N)=O)NC(=O)[C@H](CC(=O)O)NC(=O)CNC(=O)[C@@H]1CCCN1C(=O)[C@H](Cc1ccc(O)cc1)NC(=O)[C@@H](NC(=O)[C@@H]1CCCN1C(=O)[C@H](CCC(=O)O)NC(=O)[C@H](CC(C)C)NC(=O)[C@@H]1CCCN1C(=O)c1ccc2c(c1)C1(OC2=O)c2ccc(N(C)C)cc2Oc2cc(N(C)C)ccc21)C(C)C)[C@@H](C)O)C(=O)N[C@@H](CC(N)=O)C(=O)N[C@@H](CCCCN)C(=O)N[C@@H](CC(C)C)C(=O)N[C@H](C(=O)N[C@@H](CCCNC(=N)N)C(=O)N1CCC[C@H]1C(=O)N[C@@H](CCCNC(=N)N)C(=O)N[C@@H](Cc1ccc(O)cc1)C(N)=O)[C@@H](C)O` [14b, TAMRA-[K^30]hPP2–36] (X1-PLEPVYPGDNATPEQMAQYAADLRRYINKLTRPRY-NH2), which half-life at 10 μM [1] is on record?
Answer: ~4.17 days

Question: And the half-life at 10 μM [2]?
Answer: 660 ± 24 min

Question: Which “fold increased half-life in human blood plasma compared to control peptide 14b” value ([1]; 37°C) does the source give for `CCCCCCCCCCCCCCCC(=O)N[C@@H](CCC(=O)NCCCC[C@H](NC(=O)[C@H](CC(N)=O)NC(=O)[C@@H](NC(=O)[C@H](Cc1ccc(O)cc1)NC(=O)[C@H](CCCNC(=N)N)NC(=O)[C@H](CCCNC(=N)N)NC(=O)[C@H](CC(C)C)NC(=O)[C@H](CC(=O)O)NC(=O)[C@H](C)NC(=O)[C@H](C)NC(=O)[C@H](Cc1ccc(O)cc1)NC(=O)[C@H](CCC(N)=O)NC(=O)[C@H](C)NC(=O)[C@H](CCSC)NC(=O)[C@H](CCC(N)=O)NC(=O)[C@H](CCC(=O)O)NC(=O)[C@@H]1CCCN1C(=O)[C@@H](NC(=O)[C@H](C)NC(=O)[C@H](CC(N)=O)NC(=O)[C@H](CC(=O)O)NC(=O)CNC(=O)[C@@H]1CCCN1C(=O)[C@H](Cc1ccc(O)cc1)NC(=O)[C@@H](NC(=O)[C@@H]1CCCN1C(=O)[C@H](CCC(=O)O)NC(=O)[C@H](CC(C)C)NC(=O)[C@@H]1CCCN1C(=O)c1ccc2c(c1)C1(OC2=O)c2ccc(N(C)C)cc2Oc2cc(N(C)C)ccc21)C(C)C)[C@@H](C)O)[C@@H](C)CC)C(=O)N[C@@H](CC(C)C)C(=O)N[C@H](C(=O)N[C@@H](CCCNC(=N)N)C(=O)N1CCC[C@H]1C(=O)N[C@@H](CCCNC(=N)N)C(=O)N[C@@H](Cc1ccc(O)cc1)C(N)=O)[C@@H](C)O)C(=O)O` [18b, TAMRA-[K^30(E-Pam)]hPP2–36] (X1-PLEPVYPGDNATPEQMAQYAADLRRYINK([γGlu-Palmitoyl])LTRPRY-NH2) here?
Answer: more than 10 fold

Question: And the half-life at 10 μM [1]?
Answer: 45.3 ± 11.8 days

Question: What about the half-life at 10 μM [2] of the same compound?
Answer: 708 ± 48 min

Question: Which half-life at 10 μM [1] does the source give for `CCC(=O)N[C@@H](CCC(=O)NCCCC[C@H](NC(=O)[C@H](CC(N)=O)NC(=O)[C@@H](NC(=O)[C@H](Cc1ccc(O)cc1)NC(=O)[C@H](CCCNC(=N)N)NC(=O)[C@H](CCCNC(=N)N)NC(=O)[C@H](CC(C)C)NC(=O)[C@H](CC(=O)O)NC(=O)[C@H](C)NC(=O)[C@H](C)NC(=O)[C@H](Cc1ccc(O)cc1)NC(=O)[C@H](CCC(N)=O)NC(=O)[C@H](C)NC(=O)[C@H](CCSC)NC(=O)[C@H](CCC(N)=O)NC(=O)[C@H](CCC(=O)O)NC(=O)[C@@H]1CCCN1C(=O)[C@@H](NC(=O)[C@H](C)NC(=O)[C@H](CC(N)=O)NC(=O)[C@H](CC(=O)O)NC(=O)CNC(=O)[C@@H]1CCCN1C(=O)[C@H](Cc1ccc(O)cc1)NC(=O)[C@@H](NC(=O)[C@@H]1CCCN1C(=O)[C@H](CCC(=O)O)NC(=O)[C@H](CC(C)C)NC(=O)[C@@H]1CCCN1C(=O)c1ccc2c(c1)C1(OC2=O)c2ccc(N(C)C)cc2Oc2cc(N(C)C)ccc21)C(C)C)[C@@H](C)O)[C@@H](C)CC)C(=O)N[C@@H](CC(C)C)C(=O)N[C@H](C(=O)N[C@@H](CCCNC(=N)N)C(=O)N1CCC[C@H]1C(=O)N[C@@H](CCCNC(=N)N)C(=O)N[C@@H](Cc1ccc(O)cc1)C(N)=O)[C@@H](C)O)C(=O)O` [15b, TAMRA-[K^30(E-Prop)]hPP2–36] (X1-PLEPVYPGDNATPEQMAQYAADLRRYINK([γGlu-Propionyl])LTRPRY-NH2) here?
Answer: 19.7 ± 0.721 days

Question: What about the half-life at 10 μM [2] of the same compound?
Answer: 2800 ± 396 min

Question: With `CC[C@H](C)[C@H](NC(=O)[C@H](Cc1ccc(O)cc1)NC(=O)[C@H](CCCNC(=N)N)NC(=O)[C@H](CCCNC(=N)N)NC(=O)[C@H](CC(C)C)NC(=O)[C@H](CC(=O)O)NC(=O)[C@H](C)NC(=O)[C@H](C)NC(=O)[C@H](Cc1ccc(O)cc1)NC(=O)[C@H](CCC(N)=O)NC(=O)[C@H](C)NC(=O)[C@H](CCSC)NC(=O)[C@H](CCC(N)=O)NC(=O)[C@H](CCC(=O)O)NC(=O)[C@@H]1CCCN1C(=O)[C@@H](NC(=O)[C@H](C)NC(=O)[C@H](CC(N)=O)NC(=O)[C@H](CC(=O)O)NC(=O)CNC(=O)[C@@H]1CCCN1C(=O)[C@H](Cc1ccc(O)cc1)NC(=O)[C@@H](NC(=O)[C@@H]1CCCN1C(=O)[C@H](CCC(=O)O)NC(=O)[C@H](CC(C)C)NC(=O)[C@@H]1CCCN1)C(C)C)[C@@H](C)O)C(=O)N[C@@H](CC(N)=O)C(=O)N[C@@H](CCCCNC(=O)c1ccc2c(c1)C1(OC2=O)c2ccc(N(C)C)cc2Oc2cc(N(C)C)ccc21)C(=O)N[C@@H](CC(C)C)C(=O)N[C@H](C(=O)N[C@@H](CCCNC(=N)N)C(=O)N1CCC[C@H]1C(=O)N[C@@H](CCCNC(=N)N)C(=O)N[C@@H](Cc1ccc(O)cc1)C(N)=O)[C@@H](C)O` [compound 20, [K^30(TAMRA)]hPP2–36] (H-PLEPVYPGDNATPEQMAQYAADLRRYINK(X1)LTRPRY-NH2) as the compound, how does the half-life at 10 μM [1] read?
Answer: ~4.17 days

Question: And the half-life at 10 μM [2]?
Answer: 1180 ± 24 min

Question: Which results are given for `CCCCCCCCCCCCCCCCCCCC(=O)N[C@@H](CCC(=O)NCCCC[C@H](NC(=O)[C@H](C)NC(=O)[C@H](Cc1ccc(O)cc1)NC(=O)[C@H](CCC(N)=O)NC(=O)[C@H](C)NC(=O)[C@H](CCSC)NC(=O)[C@H](CCC(N)=O)NC(=O)[C@H](CCC(=O)O)NC(=O)[C@@H]1CCCN1C(=O)[C@@H](NC(=O)[C@H](C)NC(=O)[C@H](CC(N)=O)NC(=O)[C@H](CC(=O)O)NC(=O)CNC(=O)[C@@H]1CCCN1C(=O)[C@H](Cc1ccc(O)cc1)NC(=O)[C@@H](NC(=O)[C@@H]1CCCN1C(=O)[C@H](CCC(=O)O)NC(=O)[C@H](CC(C)C)NC(=O)[C@@H]1CCCN1)C(C)C)[C@@H](C)O)C(=O)N[C@@H](CC(=O)O)C(=O)N[C@@H](CC(C)C)C(=O)N[C@@H](CCCNC(=N)N)C(=O)N[C@@H](CCCNC(=N)N)C(=O)N[C@@H](Cc1ccc(O)cc1)C(=O)N[C@H](C(=O)N[C@@H](CC(N)=O)C(=O)N[C@@H](CCSC)C(=O)N[C@@H](CC(C)C)C(=O)N[C@H](C(=O)N[C@@H](CCCNC(=N)N)C(=O)N1CCC[C@H]1C(=O)N[C@@H](CCCNC(=N)N)C(=O)N[C@@H](Cc1ccc(O)cc1)C(N)=O)[C@@H](C)O)[C@@H](C)CC)C(=O)O` [compound 13, [K^22(E-Ara)]hPP2–36] (H-PLEPVYPGDNATPEQMAQYAK([γGlu-Arachidoyl])DLRRYINMLTRPRY-NH2)?
Answer: EC50 (hY2R): 0.9 nM; Emax (hY2R; read-out: hY2R Emax): 90 ± 5%; EC50 (hY5R): 0.8 nM; Emax (hY5R; read-out: hY5R Emax): 75 ± 6%; EC50 (hY1R): 11.3 nM; Emax (hY1R; read-out: hY1R Emax): 101 ± 6%; EC50 (hY4R): 2.7 nM; Emax (hY4R; read-out: hY4R Emax): 93 ± 6%
